Experimental data from patent publication US6888015B2, “Sphingolipid synthesis inhibitor” (Japan Science and Technology Agency, priority 2001, dated 2005).

Tests used:
[1] = system: de novo synthesis of SM in CHO cells; test: Metabolic labeling of lipids with [14C]serine in CHO cells; format: cell-based, Chinese hamster; details: for inhibition of de novo SM synthesis (stereoisomers): [14C]serine labeling (FIG. 6B)
Protocol: (§1) CHO cells are cultured in Ham's F12 medium supplemented with 10% newborn bovine serum (NBS), penicillin G (100 unit/mL) and streptomycin sulfate (100 μg/mL) at the temperature of 33° C. and 5% CO2 atmosphere. In the case of HeLa cells, Dulbecco's minimum essential medium is used as a base medium instead of Ham's F12 medium.
Further, Nutridoma medium (Ham's F12 medium containing 1% Nutridoma-SP, product of Roche Molecular Biochemicals, and 25 μg/mL of gentamicin) is used as a serum-free medium. In the case when the medium is supplemented by DMSO or drugs dissolved in DMSO, the concentration of DMSO in culture medium is adjusted to be 0.01%.
CHO cells are seeded at the density of 1.0×10^6 cell in 5 mL of F12 medium containing 10% NBS, by per 60-mm dish, and cultured at 33° C. overnight. Then, the medium is changed to 1.5 mL of Nutridoma medium if necessary, various drugs are added and incubated at 4° C. for 15 minutes. Then, after addition of [^14C] serine (0.75 μCi) or [^14 C] choline (1.0 μCi) to the medium, cells were incubated at 33° C. for various periods of time.
Cells are washed twice with 2 mL of cold phosphate-buffered saline (PBS), and lysed with 900 μL of 0.1% sodium dodecyl sulfate (SDS). Then, 800 μL and 20 μL of lysate are used for lipid extraction and determination of protein concentration, respectively.
For the analysis of lipids labeled with [C^14C] serine, lipids were separated by TLC with a solvent consisting of methylacetate/n-propanol/chloroform/methanol/0.25%KCl (25:25:25:10:9, volume ratio) as a developing solvent.
Radioactive lipid separated on the TLC plates are detected with image analyzer depicted above. After the collection of gels from TLC plates by scraping, the radioactivity of each lipid is determined by liquid scintillation counting and normalized to the protein concentration of cells.

[2] = system: synthesis of SM in HeLa cells; test: De novo synthesis of SM in HeLa cells; format: cell-based; details: FIG. 6D
Protocol: as §1

[3] = system: protein trafficking from the ER to the Golgi apparatus; test: Glycoprotein (PLAP-HA) transport from the ER to the Golgi apparatus; format: cell-based, Chinese hamster; details: 2.5 μM; CHO-K1 transformant expressing PLAP-HA (FIG. 7)

SMILES	inhibition of de novo SM synthesis (stereoisomers) [1]	inhibitory activity on the Cer-to-SM conversion among four stereoisomers ([1]; FIG. 6B, 6C)	synthesis of SM in HeLa cells [2]	maturation rate of newly synthesized PLAP-HA to an EndoH-resistant form [3]	formation of [14C]SM ([1]; 2.5 μM drug, [14C]serine labeling, CHO cells (FIG. 1B))
CCCCCCCCCCCC(=O)N[C@H](CO)C[C@H](O)c1ccccc1 [(1S, 3S)-HPA-12]	moderately				
CCCCCCCCCCCC(=O)N[C@@H](CO)C[C@@H](O)c1ccccc1 [(1R, 3R)-HPA-12]	strongly	strongest inhibitory activity	inhibits	not affected	
CCCCCCCCCCCCCCCC(=O)NC(CO)CC(O)c1ccccc1 (stereo not drawn) [HPA-16]					less than that of HPA-12
